From patent US9828375B2, “4-position substituted pyrazolopyrimidine derivative, and use thereof in drug preparation” (Guangxi Wuzhou Pharmaceuticals (Group) Co., Ltd., priority 2012, dated 2017)

Assays:
[1] = system: human malignant melanoma cell line A875; experiment: In vitro tumor cell proliferation inhibition (MTT): A875; format: cell-based
Description: (§1) The purpose of the experiment was to test the inhibition activity of the compounds of the invention for in vitro human tumor cell proliferation by the methyl thiazolyl tetrazolium (MTT) colorimetry.
(§2) Main reagents: RPMI-1640, fetal bovine serum, pancreatin, etc. were purchased from Gibco BRL Company (Invitrogen Corporation, USA) and IMDM medium that was purchased from American Type Culture Collection (ATCC). Methyl thiazolyl tetrazolium (MTT) and dimethyl sulfoxide (DMSO) were products from Sigma Company (USA). Pyrazolopyrimidine derivatives were composed by the inventor. During in vitro experiment, 100% DMSO was prepared into 10 mM storage solution, the solution was stored in a refrigerator at −20° C. for future use, and was diluted to the required concentration with complete culture solution before use.
(§3) Cell line and culture: Human leukemia cell line MV4-11, Jurkat, K562, human thyrophyma cell line TT, human gastric carcinoma cell line MKN-45, human malignant melanoma cell lines A375 and A875, human pancreatic carcinoma cell line panc-1, human cervical carcinoma cell line HELA, human colorectal carcinoma cell line HCT116, etc. were purchased from American type culture collection and were preserved by this laboratory. All leukemia cell lines (except MV4-11), gastric carcinoma cell lines and thyrophyma cell lines were cultured in RPMI-1640 complete medium containing 10% fetal bovine serum, 100 U/mL penicillin and 100 μg/mL streptomycin at 37° C. in 5% CO2. The remaining cell lines were cultured in DMEM complete medium containing 10% fetal bovine serum (containing 20% MV4-11 cell), 100 U/mL penicillin and 100 µg/mL streptomycin at 37° C. in 5% CO2.
(§4) Cell suspension with cell concentration of 1-2×10^4/mL was adjusted with the complete cell medium and inoculated in a 96-well plate, with each well filled with 200 μl cell suspension that was cultured overnight. On the next day, supernatant was sucked and abandoned (supernatant was sucked upon centrifugation of suspension cells), and then cells were processed with test compounds at gradient concentrations respectively. Meanwhile, a negative control group free from drug and a solvent control group with equal volume were set, and the DMSO concentration was 0.1%. Each dose group was provided with three wells and cultured at 37° C. in 5% CO2. After 72 hours, 20 μl 5 mg/mL MTT reagent was added to each well, and cultured for another 2 to 4 hours, the supernatant was abandoned; 150 μL DMSO was added to each well again, vibrated and mixed evenly for 15 minutes; the absorbance (A) values (proportional to living cell amount) were determined with a microplate reader (λ=570 nm) and averaged. […] Experiment was repeated for 3 times at least. Experimental data were expressed with means, data statistics were tested by t, and P<0.05 means that difference has a statistical significance. The cell proliferation inhibition effects of all compounds as follows are expressed by IC50 or inhibition rate.

PDGFRα = PDGFRα (Homo sapiens, UniProt P16234); experiment: Kinase inhibition activity test, isotope labeling: PDGFRα; format: biochemical; settings: for IC50: ATP 120 μM, read-out: PDGFRα IC50 value (inhibitory activity value); for Activity inhibition rate PDGFRα (h) / inhibition at 10 µM: test compound at a concentration of 10 μM; for inhibition at 10 µM: read-out: Activity inhibition rate PDGFRα (h)
Chain of PDGFRα (P16234 24-1089): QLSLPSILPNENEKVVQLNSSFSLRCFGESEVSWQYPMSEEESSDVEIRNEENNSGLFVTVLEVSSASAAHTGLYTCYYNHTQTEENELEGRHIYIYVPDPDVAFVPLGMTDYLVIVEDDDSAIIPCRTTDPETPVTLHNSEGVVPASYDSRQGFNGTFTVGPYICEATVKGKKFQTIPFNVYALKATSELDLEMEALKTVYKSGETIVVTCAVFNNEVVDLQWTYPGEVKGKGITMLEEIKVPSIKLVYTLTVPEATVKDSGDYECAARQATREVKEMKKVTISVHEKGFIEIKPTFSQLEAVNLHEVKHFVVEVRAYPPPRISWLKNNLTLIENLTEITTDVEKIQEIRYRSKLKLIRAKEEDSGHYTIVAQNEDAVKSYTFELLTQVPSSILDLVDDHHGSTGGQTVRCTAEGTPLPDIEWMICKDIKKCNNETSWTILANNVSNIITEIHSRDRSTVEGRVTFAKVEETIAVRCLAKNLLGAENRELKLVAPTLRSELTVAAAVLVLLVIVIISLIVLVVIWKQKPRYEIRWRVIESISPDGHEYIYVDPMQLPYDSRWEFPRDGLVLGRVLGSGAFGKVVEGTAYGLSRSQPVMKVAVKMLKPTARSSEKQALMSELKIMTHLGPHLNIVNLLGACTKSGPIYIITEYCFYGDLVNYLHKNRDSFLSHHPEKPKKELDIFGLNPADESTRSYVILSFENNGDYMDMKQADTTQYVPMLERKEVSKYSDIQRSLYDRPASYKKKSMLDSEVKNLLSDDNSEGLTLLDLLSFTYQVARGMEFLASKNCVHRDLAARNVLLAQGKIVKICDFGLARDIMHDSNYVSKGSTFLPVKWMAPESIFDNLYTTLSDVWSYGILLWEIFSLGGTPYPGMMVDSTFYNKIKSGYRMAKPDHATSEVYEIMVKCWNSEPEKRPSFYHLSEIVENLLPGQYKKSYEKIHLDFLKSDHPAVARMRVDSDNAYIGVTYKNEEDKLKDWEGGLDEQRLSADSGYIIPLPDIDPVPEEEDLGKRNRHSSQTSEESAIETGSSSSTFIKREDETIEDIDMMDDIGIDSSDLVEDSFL
Experimental: (§5) The purpose of this experiment was to test the inhibitory activity of the compound of the invention for in vitro kinase with the isotope labeling method (the γ phosphate group on ATP was labeled). In this experiment, the in vitro activity inhibition of such kinases as FLT3, VEGFR2, FLT1, FLT4, RET, c-RAF, B-RAF, c-KIT, PDGFα, PDGFβ, FGFR2, FGFR1, EphA2, EphB2, SRC, ABL, ALK and Met was tested respectively. Staurosporine was reference molecule (or referred to as positive control). The kinase inhibition activity of the test compound was expressed by half-inhibitory concentration (IC50) or the kinase activity inhibition rate of the test compound at a concentration of 10 μM. The IC50 value could be obtained by calculating the kinase activity inhibition rate of the test compound at different concentrations.
(§6) 20 mM 3-(N-morpholinyl)propanesulfonic acid (MOPS); 1 mM ethylenediaminetetraacetic acid (EDTA), 0.01% Brij 35 (Brij-35), 5% glycerol, 0.1% mercaptoethanol, 1 mg/mL bovine serum albumin (BSA), 10 mM manganous dichloride solution (MnCl2), 0.1 mg/mL glutamic acid/tyrosine (4:1) polypeptide (poly(Glu, Tyr)4:1), 50 μM EAIYAAPFAKKK (substrate of FLT3), 0.33 mg/mL myelin basic protein (substrate of VEGFR2), 250 μM KKKSPGEYVNIEFG (substrate of FLT1(h)), 500 μM GGEEEEYFELVKKKK (substrate of FLT4(h)), 250 μM KKKSPGEYVNIEFG (substrate of RET), 0.66 mg/mL myelin basic protein (substrate of C-RAF), 250 μM GGMEDIYFEFMGGKKK (substrate of c-Kit), 250 μM GGMEDIYFEFMGGKKK (substrate of PDGFα), 250 μM KKKSPGEYVNIEFG (substrate of FGFR1), […] GGEEEEYFELVKKKK (substrate of SRC), 50 μM EAIYAAPFAKKK (substrate of ABL), 250 μM KKKSPGEYVNIEFG (substrate of ALK), 250 μM KKKSPGEYVNIEFG (substrate of Met(h)), 10 mM magnesium acetate and γ-^33 P-ATP solution, stop buffer (3% phosphate buffer), washing buffer (75 mM phosphate solution), methanol, Filtermat A membrane, FLT3, VEGFR2, FLT3, VEGFR2, FLT1, FLT4, RET, c-RAF, B-RAF, c-KIT, PDGFRα, PDGFRβ, FGFR2, FGFR1, EphA2, EphB2, SRC, ABL, ALK, Met and other kinases, and the test compounds.
(§7) Buffers (8 mM MOPS with pH value of 7.0, 0.2 mM EDTA and 10 mM MnCl2), (5-10 mU) kinases to be tested (FLT3, VEGFR2, FLT1, FLT4, RET, c-RAF, B-RAF, c-KIT, PDGFRα, PDGFRβ, FGFR2, FGFR1, EphA2, EphB2, SRC, ABL, ALK and Met), substrates of kinases to be tested (refer to experimental materials), 10 mM magnesium acetate and γ-^33 P-ATP solution, and test compounds at different concentrations were added to a reaction tube orderly. […] Reaction was terminated with 5 μL 3% phosphate buffer finally, and 10 μL reaction solution was titrated to the Filtermat A membrane; solution was washed for 3 times with 75 mM phosphate solution with each time lasting 5 minutes, and then washed once with methanol. Finally, the Filtermat A membrane was dried, and scintillation counting was performed on the membrane, with scintillation count reflecting the phosphorylation degree of the substrates, so that the activity inhibition of kinase could be characterized.

[2] = system: human gastric carcinoma cell line MKN-45; experiment: In vitro tumor cell proliferation inhibition (MTT): MKN-45; format: cell-based
Description: as §1, §2, §3, §4

c-KIT = c-KIT (Homo sapiens, UniProt P10721); experiment: Kinase inhibition activity test, isotope labeling: c-KIT; format: biochemical; settings: for IC50: ATP 200 μM, read-out: c-KIT IC50 value (inhibitory activity value); for Activity inhibition rate c-Kit (h) / inhibition at 10 µM: test compound at a concentration of 10 μM; for inhibition at 10 µM: read-out: Activity inhibition rate c-Kit (h)
Chain of c-KIT (P10721 26-976): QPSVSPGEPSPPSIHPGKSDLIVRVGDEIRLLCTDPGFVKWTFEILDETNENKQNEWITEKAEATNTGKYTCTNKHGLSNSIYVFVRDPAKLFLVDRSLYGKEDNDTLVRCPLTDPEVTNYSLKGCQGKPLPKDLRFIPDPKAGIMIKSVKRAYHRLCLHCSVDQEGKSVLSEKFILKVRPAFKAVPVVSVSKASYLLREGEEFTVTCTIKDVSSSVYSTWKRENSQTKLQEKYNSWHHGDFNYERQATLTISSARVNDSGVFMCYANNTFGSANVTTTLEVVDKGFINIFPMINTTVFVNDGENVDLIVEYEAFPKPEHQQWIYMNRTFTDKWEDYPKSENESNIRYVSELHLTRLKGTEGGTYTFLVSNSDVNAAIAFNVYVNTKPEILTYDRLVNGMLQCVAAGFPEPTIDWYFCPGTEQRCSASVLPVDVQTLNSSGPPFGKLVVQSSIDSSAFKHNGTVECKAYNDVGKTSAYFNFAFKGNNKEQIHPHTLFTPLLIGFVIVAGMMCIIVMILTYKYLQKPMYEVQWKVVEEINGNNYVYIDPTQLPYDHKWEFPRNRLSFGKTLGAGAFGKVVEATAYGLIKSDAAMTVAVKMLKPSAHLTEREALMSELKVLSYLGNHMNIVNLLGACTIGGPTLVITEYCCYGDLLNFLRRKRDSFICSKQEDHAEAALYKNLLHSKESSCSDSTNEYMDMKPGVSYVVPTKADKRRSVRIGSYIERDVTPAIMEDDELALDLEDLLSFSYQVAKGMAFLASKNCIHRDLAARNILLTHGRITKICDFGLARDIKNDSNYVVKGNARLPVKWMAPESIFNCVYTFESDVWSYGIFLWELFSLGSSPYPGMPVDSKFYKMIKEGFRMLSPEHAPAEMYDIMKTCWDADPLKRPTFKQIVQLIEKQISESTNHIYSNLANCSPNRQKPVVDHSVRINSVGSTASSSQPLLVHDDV
Experimental: as §5, §6, §7

[3] = system: human malignant melanoma cell line A375; experiment: In vitro tumor cell proliferation inhibition (MTT): A375; format: cell-based
Description: as §1, §2, §3, §4

IC50 ([1]; 72 hours)	IC50 (PDGFRα)	Activity inhibition rate PDGFRα (h) (PDGFRα)	IC50 ([2]; 72 hours)	IC50 (c-KIT)	Activity inhibition rate c-Kit (h) (c-KIT)	IC50 ([3]; 72 hours)	IC50 ([1]; Homo sapiens, A875, 72 hours)	inhibition at 10 µM (PDGFRα)	IC50 ([2]; Homo sapiens, MKN-45, 72 hours)	inhibition at 10 µM (c-KIT)	IC50 ([3]; Homo sapiens, A-375, 72 hours)	SMILES
3 to 10 µM	< 10 µM	>50%	< 50 µM	0.087 µM	>90%	3 to 10 µM						CC(C)(C)c1cc(NC(=O)Nc2ccc(Oc3ncnc4[nH]ncc34)c(F)c2)no1 [4a-31]
							< 50 µM	> 30%	< 50 µM	> 30%	< 50 µM	O=C(Nc1cccc(Nc2ncnc3[nH]ncc23)c1)Nc1ccc(F)c(Cl)c1 [4b-1]
							< 50 µM	> 30%	< 50 µM	> 30%	< 50 µM	COc1ccc(NC(=O)Nc2ccc(NC(=O)N3C=NC=C4NNC=C43)cc2)cc1 [4b-6, 1-(4-(1H-pyrazolopyrimidine-4-amido)phenyl)-3-(4-methoxyphenyl)urea]
							3 to 10 µM	> 50%	1.12 µM	> 90%	3 to 10 µM	CC(C)(C)c1cc(NC(=O)Nc2ccc(Oc3ncnc4[nH]ncc34)cc2)no1 [4a-26]
							< 50 µM	> 50%		> 90%	< 50 µM	O=C(Nc1ccc(Sc2ncnc3[nH]ncc23)cc1)Nc1ccc(C(F)(F)F)cc1 [4c-1]
							< 50 µM	> 30%	< 50 µM	> 30%	< 50 µM	CC(C)n1ncc2c(Oc3ccc(NC(=O)Nc4cc(C(C)(C)C)on4)cc3)ncnc21 [5a-4, 1-(5-tert-butylisoxazol-3-yl)-3-(4-(1-isopropyl-(1H-pyrazolopyrimidine-4-yl)oxy)phenyl)urea]
< 50 µM		>50%	3 to 10 µM		>90%	< 50 µM						CC(C)(C)c1cc(NC(=O)Nc2ccc(Sc3ncnc4[nH]ncc34)cc2)no1 [4c-3, 1-(4-(1H-pyrazolopyrimidine-4-sulfydryl)phenyl)-3-(5-tert-butylisoxazol-3-yl)urea]
							< 50 µM	> 30%	< 50 µM	> 30%	< 50 µM	C[C@@H](NC(=O)Nc1ccc(Nc2ncnc3[nH]ncc23)cc1)c1ccccc1 [4b-2, (R)-1-(4-(1H-pyrazolopyrimidine-4-amido)phenyl)-3-(1-phenethyl)urea]
								> 30%	7.64 µM	> 30%		O=C(Nc1ccc(NC(=O)N2C=NC=C3NNC=C32)cc1)Nc1ccc(Cl)c(C(F)(F)F)c1 [4b-5, 1-(4-(1H-pyrazolopyrimidine-4-amido)phenyl)-3-(4-chloro-3-(trifluoromethyl)phenyl)urea]

More lines, now with the values behind:

SMILES	IC50 ([1]; 72 hours)	IC50 (PDGFRα)	Activity inhibition rate PDGFRα (h) (PDGFRα)	IC50 ([2]; 72 hours)	IC50 (c-KIT)	Activity inhibition rate c-Kit (h) (c-KIT)	IC50 ([3]; 72 hours)	IC50 ([1]; Homo sapiens, A875, 72 hours)	inhibition at 10 µM (PDGFRα)	IC50 ([2]; Homo sapiens, MKN-45, 72 hours)	inhibition at 10 µM (c-KIT)	IC50 ([3]; Homo sapiens, A-375, 72 hours)
O=C(Nc1ccc(Oc2ncnc3[nH]ncc23)cc1)Nc1ccc(Cl)c(C(F)(F)F)c1 [4a-2]	4.12 µM	0.223 µM	93%	8.23 µM	0.507 µM	100%	2.12 µM					
O=C(Nc1ccccc1)Nc1ccc(Oc2ncnc3[nH]ncc23)cc1 [4a-15, 1-(4-((1H-pyrazolopyrimidine-4-yl)oxy)phenyl)-3-phenylurea]	< 50 µM		48%	< 50 µM		66%	< 50 µM					
CC(C)(C)c1cc(NC(=O)Nc2ccc(Oc3ncnc4[nH]ncc34)cc2)n(-c2ccccc2)n1 [4a-24]	4.27 µM		>50%	2.84 µM		>90%	6.94 µM					
CC(C)(C)c1cc(NC(=O)Nc2ccc(Oc3ncnc4[nH]ncc34)cc2)on1 [4a-25]	3 to 10 µM	1.4 µM	>50%	1.3 µM	0.911 µM	>90%	3 to 10 µM					
CC(C)c1cccc(NC(=O)Nc2ccc(Oc3ncnc4[nH]ncc34)c(F)c2)c1 [4a-7, 1-(4-((1H-pyrazolopyrimidine-4-yl)oxy)-3-fluorophenyl)-3-(3-isopropylphenyl)urea]	< 50 µM		89%	< 50 µM		98%	< 50 µM					
O=C(Nc1ccc(Oc2ncnc3[nH]ncc23)c(F)c1)Nc1ccc(Cl)c(C(F)(F)F)c1 [4a-10, 1-(4-((1H-pyrazolopyrimidine-4-yl)oxy)-3-fluorophenyl)-3-(4-chloro-3-(trifluoromethyl)phenyl)urea]	< 50 µM		52%	5.28 µM		49%	< 50 µM					
O=C(Nc1ccc(Oc2ncnc3[nH]ncc23)cc1)Nc1ccc(C(F)(F)F)cc1Cl [4a-13]	< 50 µM		63%	6.68 µM		85%	< 50 µM					
O=C(Nc1ccc(Oc2ncnc3[nH]ncc23)cc1)Nc1ccc(N2CCOCC2)cc1 [4a-16, 1-(4-((1H-pyrazolopyrimidine-4-yl)oxy)phenyl)-3-(4-morpholinylphenyl)urea]								< 50 µM		3.22 µM	77%	< 50 µM
